This is an account of results in ChEMBL document CHEMBL5512659, “Structure optimizing of flavonoids against both MRSA and VRE” (Eur J Med Chem, 2024).

Structures are written as SMILES. Converted amounts (≈) assume the structure as drawn. The source made the active and inactive calls. The calls are words filed in the database; no cut-off is given here.

For the first test, the system named is Enterococcus faecalis. Description: Antibiofilm activity in multidrug resistant Enterococcus faecalis ATCC 51299 assessed as inhibition of biofilm formation at 4 times MIC by crystal violet staining based analysis relative to control. In kind it is functional.
Conditions: not given
For `CCCCCCc1c(-c2ccc(OCC(=O)CN[C@H](CCCNC(=N)N)C(=O)OC)cc2OCC(=O)CN[C@H](CCCNC(=N)N)C(=O)OC)oc2cc(OC)cc(O)c2c1=O`, the “inhibition (INH)” value is on record as greater than 90%.

In another test the test system is Staphylococcus aureus. Description: Antibacterial activity in methicillin resistant Staphylococcus aureus clinical isolate 003 at sub-MIC measured after 20 passages.
Conditions: not given
The format is functional, organism-based.
Turning to `CCCCCCc1c(-c2ccc(OCC(=O)CN[C@H](CCCNC(=N)N)C(=O)OC)cc2OCC(=O)CN[C@H](CCCNC(=N)N)C(=O)OC)oc2cc(OC)cc(O)c2c1=O`, the result was Active.

The next test deals with Staphylococcus aureus. Description: Bactericidal activity against methicillin-resistant Staphylococcus aureus clinical isolate 003 assessed as inhibition of bacterial growth by measuring ratio of MBC to MIC.
Conditions: not given
In kind it is functional.
Consider `CCCCCCc1c(-c2ccc(OCC(=O)CN[C@H](CCCNC(=N)N)C(=O)OC)cc2OCC(=O)CN[C@H](CCCNC(=N)N)C(=O)OC)oc2cc(OC)cc(O)c2c1=O`, for which the Ratio is less than 4.

The test system of another test is Cell membrane. Description: Disruption of membrane permeability in methicillin resistant Staphylococcus aureus clinical isolate 003 assessed as nucleic acid leakage at 2 to 4 times MIC.
Conditions: not given
`CCCCCCc1c(-c2ccc(OCC(=O)CN[C@H](CCCNC(=N)N)C(=O)OC)cc2OCC(=O)CN[C@H](CCCNC(=N)N)C(=O)OC)oc2cc(OC)cc(O)c2c1=O`: the outcome was Active.

Another test has as its system Enterococcus faecalis. Description: Antibacterial activity against multidrug resistant Enterococcus faecalis ATCC 51299.
Conditions: not given
In kind it is functional.
In the case of `CCCCCCc1c(-c2ccc(OCC(=O)CN[C@H](CCCNC(=N)N)C(=O)OC)cc2OCC(=O)CN[C@H](CCCNC(=N)N)C(=O)OC)oc2cc(OC)cc(O)c2c1=O`, the lowest concentration to inhibit growth (MIC) was 32 µg/mL (≈ 36.8 µM).

The next test deals with Enterococcus faecalis. The test is described as follows: Antibiofilm activity in multidrug resistant Enterococcus faecalis ATCC 51299 assessed as biofilm clearance rate at 4 times MIC by crystal violet staining based analysis relative to control. In kind it is functional.
Conditions: not given
As for `CCCCCCc1c(-c2ccc(OCC(=O)CN[C@H](CCCNC(=N)N)C(=O)OC)cc2OCC(=O)CN[C@H](CCCNC(=N)N)C(=O)OC)oc2cc(OC)cc(O)c2c1=O`, the Activity was roughly 80%.

In the next test the test system is Enterococcus faecalis. The test is described as follows: Antibacterial activity against multidrug resistant Enterococcus faecalis ATCC 51299 in presence of cardiolipin. The format is functional, organism-based.
Conditions: not given
Consider `CCCCCCc1c(-c2ccc(OCC(=O)CN[C@H](CCCNC(=N)N)C(=O)OC)cc2OCC(=O)CN[C@H](CCCNC(=N)N)C(=O)OC)oc2cc(OC)cc(O)c2c1=O`, for which the result was inactive.

For a further test, the system named is Staphylococcus aureus. Description: Antibacterial activity against methicillin resistant Staphylococcus aureus clinical isolate 003. The format is functional.
Conditions: not given
For the compound `CCCCCCc1c(-c2ccc(OCC(=O)CN[C@H](CCCNC(=N)N)C(=O)OC)cc2OCC(=O)CN[C@H](CCCNC(=N)N)C(=O)OC)oc2cc(OC)cc(O)c2c1=O`, the MIC is 1 µg/mL (≈ 1.15 µM).

The next test concerns Staphylococcus aureus. Description: Antibacterial activity against methicillin resistant Staphylococcus aureus clinical isolate 003 in presence of cardiolipin. The format is functional, organism-based.
Conditions: not given
Turning to `CCCCCCc1c(-c2ccc(OCC(=O)CN[C@H](CCCNC(=N)N)C(=O)OC)cc2OCC(=O)CN[C@H](CCCNC(=N)N)C(=O)OC)oc2cc(OC)cc(O)c2c1=O`, the outcome was inactive.

A further test concerns Cell membrane. The test is described as follows: Disruption of membrane permeability in methicillin resistant Staphylococcus aureus clinical isolate 003 assessed as increase in fluorescence intensity at 4 to 8 times MIC by PI staining based analysis.
Conditions: not given
Turning to `CCCCCCc1c(-c2ccc(OCC(=O)CN[C@H](CCCNC(=N)N)C(=O)OC)cc2OCC(=O)CN[C@H](CCCNC(=N)N)C(=O)OC)oc2cc(OC)cc(O)c2c1=O`, the outcome was Active.

For another test, the system named is Cell membrane. Description: Disruption of membrane permeability in multidrug resistant Enterococcus faecalis ATCC 51299 assessed as increase in ROS accumulation at 2 to 4 times MIC measured after 1 hr.
Conditions: not given
For `CCCCCCc1c(-c2ccc(OCC(=O)CN[C@H](CCCNC(=N)N)C(=O)OC)cc2OCC(=O)CN[C@H](CCCNC(=N)N)C(=O)OC)oc2cc(OC)cc(O)c2c1=O`, the outcome was Active.

Another test has as its system Cell membrane. The test is described as follows: Induction of membrane damage in methicillin resistant Staphylococcus aureus clinical isolate 003 assessed as rupture of bacterial surface at 2 to 4 times MIC by SEM analysis. In kind it is cell membranes.
Conditions: not given
Turning to `CCCCCCc1c(-c2ccc(OCC(=O)CN[C@H](CCCNC(=N)N)C(=O)OC)cc2OCC(=O)CN[C@H](CCCNC(=N)N)C(=O)OC)oc2cc(OC)cc(O)c2c1=O`, the result was Active.

Another test relates to Staphylococcus aureus. Description: Antibacterial activity against Staphylococcus aureus clinical isolate 29. The format is functional.
Conditions: not given
Compound `CCCCCCc1c(-c2ccc(OCC(=O)CN[C@H](CCCNC(=N)N)C(=O)OC)cc2OCC(=O)CN[C@H](CCCNC(=N)N)C(=O)OC)oc2cc(OC)cc(O)c2c1=O` showed an MIC of 2 µg/mL (≈ 2.3 µM).

Another test relates to Enterococcus faecalis. Description: Antibacterial activity against multidrug resistant Enterococcus faecalis ATCC 51299 in presence of phosphatidylethanolamine. In kind it is functional, organism-based.
Conditions: not given
Consider `CCCCCCc1c(-c2ccc(OCC(=O)CN[C@H](CCCNC(=N)N)C(=O)OC)cc2OCC(=O)CN[C@H](CCCNC(=N)N)C(=O)OC)oc2cc(OC)cc(O)c2c1=O`, for which the result was inactive.

For the next test, the system named is Enterococcus faecalis. Description: Antibacterial activity against Enterococcus faecalis clinical isolate 7. The format is functional.
Conditions: not given
As to `CCCCCCc1c(-c2ccc(OCC(=O)CN[C@H](CCCNC(=N)N)C(=O)OC)cc2OCC(=O)CN[C@H](CCCNC(=N)N)C(=O)OC)oc2cc(OC)cc(O)c2c1=O`, the minimal inhibitory concentration (MIC) is 64 µg/mL (≈ 73.6 µM).

The subject of another test is Cell membrane. Description: Disruption of membrane permeability in methicillin resistant Staphylococcus aureus clinical isolate 003 assessed as increase in ROS accumulation at 2 to 4 times MIC measured after 1 hr.
Conditions: not given
In the case of `CCCCCCc1c(-c2ccc(OCC(=O)CN[C@H](CCCNC(=N)N)C(=O)OC)cc2OCC(=O)CN[C@H](CCCNC(=N)N)C(=O)OC)oc2cc(OC)cc(O)c2c1=O`, the outcome was Active.

Another test deals with Cell membrane. Description: Induction of cell membrane damage in multidrug resistant Enterococcus faecalis ATCC 51299 assessed as increase in green fluorescence at 2 to 4 times MIC by SYTOX Green dye based analysis. The format is cell membranes.
Conditions: not given
With `CCCCCCc1c(-c2ccc(OCC(=O)CN[C@H](CCCNC(=N)N)C(=O)OC)cc2OCC(=O)CN[C@H](CCCNC(=N)N)C(=O)OC)oc2cc(OC)cc(O)c2c1=O`, the result was Active.

The subject of a further test is Cell membrane. Description: Induction of membrane damage in multidrug resistant Enterococcus faecalis ATCC 51299 assessed as deformation of bacterial surface at 2 to 4 times MIC by SEM analysis. The format is cell membranes.
Conditions: not given
As for `CCCCCCc1c(-c2ccc(OCC(=O)CN[C@H](CCCNC(=N)N)C(=O)OC)cc2OCC(=O)CN[C@H](CCCNC(=N)N)C(=O)OC)oc2cc(OC)cc(O)c2c1=O`, the result was Active.

Another test has as its system Cell membrane. Description: Induction of membrane damage in multidrug resistant Enterococcus faecalis ATCC 51299 assessed as rupture of bacterial surface at 2 to 4 times MIC by SEM analysis. In kind it is cell membranes.
Conditions: not given
As to `CCCCCCc1c(-c2ccc(OCC(=O)CN[C@H](CCCNC(=N)N)C(=O)OC)cc2OCC(=O)CN[C@H](CCCNC(=N)N)C(=O)OC)oc2cc(OC)cc(O)c2c1=O`, the outcome was Active.

Another test relates to Enterococcus faecalis. Description: Antibacterial activity against multidrug resistant Enterococcus faecalis ATCC 51299 at 2 to 4 times MIC measured after 8 to 12 hrs by time-kill assay. The format is functional, organism-based. The settings on record: time 8-12 hrs.
Turning to `CCCCCCc1c(-c2ccc(OCC(=O)CN[C@H](CCCNC(=N)N)C(=O)OC)cc2OCC(=O)CN[C@H](CCCNC(=N)N)C(=O)OC)oc2cc(OC)cc(O)c2c1=O`, the outcome was Active.

For the next test, the system named is Cell membrane. The test is described as follows: Disruption of membrane permeability in multidrug resistant Enterococcus faecalis ATCC 51299 assessed as increase in fluorescence intensity at 4 to 8 times MIC by PI staining based analysis.
Conditions: not given
On to `CCCCCCc1c(-c2ccc(OCC(=O)CN[C@H](CCCNC(=N)N)C(=O)OC)cc2OCC(=O)CN[C@H](CCCNC(=N)N)C(=O)OC)oc2cc(OC)cc(O)c2c1=O`, for which the result was Active.

As a reminder, the MIC is the lowest concentration that inhibits growth of the organism. A higher MIC goes with weaker potency.
